What was measured:
Assay in all cases: drug sensitivity score (DSS3, normalised partial AUC of % inhibition dose-response) (DSS (score)); higher = more sensitive (stronger inhibition of viability); extreme values may be limits of the assay
FMOC24 = patient-derived high-grade serous ovarian cancer cells; conditions: 72 h; library: FO5A; assay format: 2D, 384-well, CellTiter-Glo
Method in brief: (§1)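 Early-passage (under 10) patient-derived ovarian cancer cells were dispensed onto 384-well flat clear-bottom plates pre-plated with compounds at five concentrations spanning a 10,000-fold range, then incubated 72 h at 37 °C, 5% CO2. Viability was read with CellTiter-Glo, and the data were processed in Breeze. The drug sensitivity score is a partial area under the percent-inhibition dose-response curve divided by the log of the upper asymptote, with higher values meaning greater sensitivity.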

FMOC25_1 = patient-derived low-grade serous ovarian cancer cells; conditions: 72 h; library: FO4B; assay format: 2D, 384-well, CellTiter-Glo
Method in brief: as §1

FMOC03 = patient-derived mucinous ovarian cancer cells; conditions: 72 h; library: FO5A; assay format: 2D, 384-well, CellTiter-Glo
Method in brief: as §1

FMOC02_3 = patient-derived low-grade serous ovarian cancer cells; conditions: 72 h; library: FO5A; assay format: 2D, 384-well, CellTiter-Glo
Method in brief: as §1

FMOC06 = patient-derived mucinous ovarian cancer cells; conditions: 72 h; library: FO5A; assay format: 2D, 384-well, CellTiter-Glo
Method in brief: as §1

FMOC14 = patient-derived high-grade serous ovarian cancer cells; conditions: 72 h; library: FO5A; assay format: 2D, 384-well, CellTiter-Glo
Method in brief: as §1

FMOC25_2 = patient-derived low-grade serous ovarian cancer cells; conditions: 72 h; library: FO5A; assay format: 2D, 384-well, CellTiter-Glo
Method in brief: as §1

FMOC02_2 = patient-derived low-grade serous ovarian cancer cells; conditions: 72 h; library: FO5A; assay format: 2D, 384-well, CellTiter-Glo
Method in brief: as §1

FMOC09 = patient-derived high-grade serous ovarian cancer cells; conditions: 72 h; library: FO5A; assay format: 2D, 384-well, CellTiter-Glo
Method in brief: as §1

FMOC22 = patient-derived mucinous ovarian cancer cells; conditions: 72 h; library: FO5A; assay format: 2D, 384-well, CellTiter-Glo
Method in brief: as §1

Structure (SMILES) | drug sensitivity score (FMOC24) | drug sensitivity score (FMOC25_1) | drug sensitivity score (FMOC03) | drug sensitivity score (FMOC02_3) | drug sensitivity score (FMOC06) | drug sensitivity score (FMOC14) | drug sensitivity score (FMOC25_2) | drug sensitivity score (FMOC02_2) | drug sensitivity score (FMOC09) | drug sensitivity score (FMOC22)
C#Cc1cccc(Nc2ncnc3cc(OCCOC)c(OCCOC)cc23)c1 [Erlotinib] | 3.6 | 11.7 | 14.7 | 15.1 | 3 | 3.7 | 14.1 | 15.7 | 11 | 1.8
COc1cc(Br)c(Nc2nc(-c3c(C)nc4ncccn34)cs2)c(Br)c1 [PTC-209] | 1.35 | 6.3 | 4.6 | 4.6 | 3.5 | 2.7 | 8.4 | 5.5 | 6 | 4.5
CCN(CC)Cc1ccc2cc(COC(=O)Nc3ccc(C(=O)NO)cc3)ccc2c1 [Givinostat] | 5.45 | 5.2 | 6.1 | 5.9 | 5.2 | 4.4 | 4 | 7.1 | 1.5 | 4.7
O=C(/C=C/c1cccc(S(=O)(=O)Nc2ccccc2)c1)NO [Belinostat] | 11.4 | 10.8 | 13.6 | 10.3 | 11.9 | 16 | 10.5 | 12.3 | 6.4 | 9.9
CC[C@@]1(O)C(=O)OCc2c1cc1n(c2=O)Cc2cc3c(CN(C)C)c(O)ccc3nc2-1 [Topotecan] | 7 | 12.7 | 8.1 | 15.3 | 8.2 | 9.4 | 16.8 | 9.7 | 8.4 | 15.6
O=C(c1ccc(F)c(F)c1Nc1ccc(I)cc1F)N1CC(O)([C@@H]2CCCCN2)C1 [Cobimetinib] | 1.8 | 10 | 10.3 | 13.7 | 9 | 0.1 | 9.2 | 13.3 | 6.1 | 7.5
CN(C)C1CCN(C(=O)c2ccc(NC(=O)Nc3ccc(-c4nc(N5CCOCC5)nc(N5CCOCC5)n4)cc3)cc2)CC1 [Gedatolisib] | 9.05 | 16.3 | 8.2 | 13.3 | 12.4 | 10.2 | 19.9 | 8.2 | 11.3 | 10.7
CCc1cnn2c(NCc3ccc[n+]([O-])c3)cc(N3CCCC[C@H]3CCO)nc12 [Dinaciclib] | 18.8 | 17.6 | 16.4 | 25 | 20.2 | 18.5 | 28.3 | 22.1 | 10.3 | 13.1
O=C(/C=C\n1cnc(-c2cc(C(F)(F)F)cc(C(F)(F)F)c2)n1)NNc1ccccn1 [Verdinexor] | 11.2 | 6.2 | 8.2 | 9.2 | 11.2 | 6 | 11.9 | 9.4 | 7.6 | 8.6
CN(C)Cc1c(C(=O)NCCOc2ccc(C(=O)NO)cc2)oc2ccccc12 [Abexinostat] | 15.3 | 13.3 | 12.7 | 14 | 11.7 | 13.5 | 14.2 | 16.6 | 5.9 | 8.5
CC(C)Oc1ccc(C(=O)N[C@H](CNC(=O)CN(C)C)Cc2ccc(-c3cn4cccc([C@H](C)O)c4n3)cc2)cc1Cl | 4.8 | 3.3 | 5.5 | 11.9 | 2.7 | 3.5 | 8.8 | 3.8 | 7.3 | 5.7
COc1cc(N2CCC(N3CCN(C)CC3)CC2)ccc1Nc1ncnc(Nc2ccccc2S(=O)(=O)C(C)C)n1 [ASP3026] | 5.1 | 5.2 | 4 | 8.1 | 4.9 | 0.8 | 8.6 | 9.8 | 7.2 | 4
CCCCCCCCc1ccc(CCC(N)(CO)CO)cc1 [Fingolimod] | 10.8 | 6.2 | 5.1 | 6.1 | 7 | 7.3 | 5.7 | 7.7 | 6 | 5.3
COc1cc(C(=O)O)ccc1NC(=O)[C@@H]1N[C@@H](CC(C)(C)C)[C@](C#N)(c2ccc(Cl)cc2F)[C@H]1c1cccc(Cl)c1F [Idasanutlin] | 1.9 | 10.5 | 2.6 | 22.7 | 5.3 | 2.5 | 16.6 | 18.5 | 2 | 3.6
O=C(Nc1cccc(NC(=O)c2cccc(O)c2O)c1)c1cccc(O)c1O [MST-312] | 5.55 | 4.5 | 6.2 | 7.7 | 5.7 | 8.2 | 2.4 | 2.7 | 9.7 | 10.1
NS(=O)(=O)OC[C@@H]1C[C@@H](n2ccc3c(N[C@H]4CCc5ccccc54)ncnc32)C[C@@H]1O [Pevonedistat] | 10.7 | 11.5 | 8.2 | 10.6 | 4.1 | 0.3 | 20.5 | 10.2 | 10.1 | 12.6
Nc1ccn([C@@H]2O[C@H](CO)[C@@H](O)[C@@H]2O)c(=O)n1 [Cytarabine] | 0.6 | 3.4 | 2.3 | 9.3 | 2.4 | 0 | 6.3 | 8.3 | 6.9 | 6.4
COc1cc2ncnc(Nc3ccc(F)c(Cl)c3)c2cc1OCCCN1CCOCC1 [Gefitinib] | 5.8 | 9.8 | 16.2 | 15.1 | 5.4 | 6.6 | 16.5 | 17.3 | 10.9 | 1.5

Reference: the supplement of paper PMC9938120
